Laboratory results reported in US9365522B2, “Pyrazole amide derivative” (AMGEN INC., priority 2015, dated 2016).

Biological target: T1, human RORγ-LBD (Homo sapiens, UniProt P51449)
T1 construct: made in house; host or cells: E. coli (BL-21)
T1 sequence (P51449 262-518): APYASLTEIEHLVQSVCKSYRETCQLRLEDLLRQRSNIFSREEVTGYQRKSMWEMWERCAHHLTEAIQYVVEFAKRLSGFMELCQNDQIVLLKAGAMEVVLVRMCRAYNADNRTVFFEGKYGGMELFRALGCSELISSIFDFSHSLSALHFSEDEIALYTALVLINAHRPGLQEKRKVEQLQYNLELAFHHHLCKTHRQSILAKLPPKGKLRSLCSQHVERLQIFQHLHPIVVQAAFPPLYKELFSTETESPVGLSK
Experiment: ROR gamma coactivator peptide recruitment Alphascreen assay (RORγ-LBD binding to GRIP1 coactivator peptide)
Format: biochemical
Settings: 5 nM human RORγ-LBD, 30 nM 7-β-hydroxycholesterol, 50 nM biotinylated GRIP1 coactivator peptide, overnight incubation at room temperature; read-out: result (pIC50, RORγ coactivator peptide recruitment Alphascreen assay) (converted)
Summary of the method: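 His/Flag-tagged human RORγ-LBD (aa 262-518, E. coli-expressed, 5 nM) with agonist 7-β-hydroxycholesterol (30 nM) and biotinylated GRIP1 LXXLL peptide (50 nM) in HEPES pH 7.4 buffer, 2.5% DMSO. Compound 1-in-2 dilutions; Alphascreen bead signal read after overnight incubation at room temperature; pIC50 calculated.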

SMILES | IC50 [nM]
Cc1cc(Cl)c(CCN(CC2CCCCC2)C(=O)c2cnn([C@H]3CC[C@H](C(=O)O)CC3)c2C(F)(F)F)c(Cl)c1 [Example 510, trans-4-(4-((cyclohexylmethyl)(2-(2,6-dichloro-4-methylphenyl)ethyl)carbamoyl)-5-(trifluoromethyl)-1H-pyrazol-1-yl)cyclohexanecarboxylic acid] | 1.78
C[C@@H]1C[C@@H](n2ncc(C(=O)N(CC(=O)c3c(Cl)cncc3Cl)CC(C)(C)C)c2C(F)(F)F)CC[C@@H]1C(=O)O [Example 739] | 5.75
O=C(CN(CC1(F)CCCC1)C(=O)c1cnn([C@H]2C[C@@H]3[C@H](C2)[C@@H]3C(=O)O)c1C(F)(F)F)c1c(Cl)cccc1Cl [Example 769, (1R,3r,5S,6s)-3-(4-((2-(2,6-dichlorophenyl)-2-oxoethyl)((1-fluorocyclopentyl)methyl)carbamoyl)-5-(trifluoromethyl)-1H-pyrazol-1-yl)bicyclo[3.1.0]hexane-6-carboxylic acid] | 18.6
O=C(CN(C(=O)c1cnn([C@H]2CC[C@@H](C(=O)O)CC2)c1C(F)(F)F)[C@@H]1CCC12CCC2)c1c(Cl)cccc1Cl [Example 640, cis-4-(4-((2-(2,6-dichlorophenyl)-2-oxoethyl)((1R)-spiro[3.3]hept-1-yl)carbamoyl)-5-(trifluoromethyl)-1H-pyrazol-1-yl)cyclohexanecarboxylic acid] | 776
CC(C)(C)CN(CCc1c(Cl)cncc1Cl)C(=O)c1cnn([C@H]2CC[C@H](C(=O)O)CC2)c1C(F)(F)F [Example 547] | 19.5
C[C@]1(C(=O)O)CC[C@H](n2ncc(C(=O)N(CC(=O)c3c(Cl)cccc3Cl)[C@H]3CCOC4(CCC4)C3)c2C(F)(F)F)CC1 [Example 653, trans-4-(4-((2-(2,6-dichlorophenyl)-2-oxoethyl)((8S)-5-oxaspiro[3.5]non-8-yl)carbamoyl)-5-(trifluoromethyl)-1H-pyrazol-1-yl)-1-methylcyclohexanecarboxylic acid] | 70.8

Further lines, results first:

IC50 [nM] | SMILES
2.34 | O=C(O)C[C@H]1CC[C@H](n2ncc(C(=O)N(CC(=O)c3c(Cl)cncc3Cl)Cc3cc(F)cc(F)c3)c2C(F)(F)F)CC1 [Example 755, (trans-4-(4-((2-(3,5-dichloro-4-pyridinyl)-2-oxoethyl)(3,5-difluorobenzyl)carbamoyl)-5-(trifluoromethyl)-1H-pyrazol-1-yl)cyclohexyl)acetic acid]
34.7 | C[C@H](C(=O)O)[C@H]1CC[C@@H](n2ncc(C(=O)N(CC(=O)c3c(Cl)cncc3Cl)Cc3cc(F)cc(F)c3)c2C(F)(F)F)CC1 [Example 786, 2-(cis-4-(4-((2-(3,5-dichloro-4-pyridinyl)-2-oxoethyl)(3,5-difluorobenzyl)carbamoyl)-5-(trifluoromethyl)-1H-pyrazol-1-yl)cyclohexyl)propanoic acid]
4.47 | C[C@]1(C(=O)O)CC[C@H](n2ncc(C(=O)N(CCc3c(Cl)cncc3Cl)CC3(F)CCCC3)c2C(F)(F)F)CC1 [Example 606, trans-4-(4-((2-(3,5-dichloro-4-pyridinyl)ethyl)((1-fluorocyclopentyl)methyl)carbamoyl)-5-(trifluoromethyl)-1H-pyrazol-1-yl)-1-methylcyclohexanecarboxylic acid]
57.5 | C[C@]1(C(=O)O)CC[C@H](n2ncc(C(=O)N(CC(=O)c3c(Cl)cccc3Cl)[C@@H]3CCC34CCC4)c2C(F)(F)F)CC1 [Example 639, trans-4-(4-((2-(2,6-dichlorophenyl)-2-oxoethyl)((1R)-spiro[3.3]hept-1-yl)carbamoyl)-5-(trifluoromethyl)-1H-pyrazol-1-yl)-1-methylcyclohexanecarboxylic acid]
15.5 | COC1(CN(CC(=O)c2c(Cl)cncc2Cl)C(=O)c2cnn([C@H]3CC[C@](C)(C(=O)O)CC3)c2C(F)(F)F)CCCC1 [Example 638, trans-4-(4-((2-(3,5-dichloro-4-pyridinyl)-2-oxoethyl)((1-methoxycyclopentyl)methyl)carbamoyl)-5-(trifluoromethyl)-1H-pyrazol-1-yl)-1-methylcyclohexanecarboxylic acid]
